# Source: publication PMC2978097, “Inhibiting α-Synuclein Oligomerization by Stable Cell-Penetrating β-Synuclein Fragments Recovers Phenotype of Parkinson's Disease Model Flies” (PLoS ONE, 2010)
# Where a SMILES comes first, the peptide text is derived from it. Where no end group is shown, it is not given here. [ ]: non-standard residue; d: D form.
# Key:
# PC12 cells = assay: Toxicity towards cultured PC12 cells; format: cell-based; conditions: concentrations up to 1 mM in the growing medium, twenty four hours; data not shown
# Source text: Our best inhibitor candidate was the β-syn 36 peptide which inhibited both the soluble and insoluble fibrillar aggregates of α-syn.
# [1] = In vitro peptide stability in mouse brain homogenate; format: in vitro ADME; conditions: 20% peptide solution (1 mM in Tris pH 7.6) and 80% of 10% ICR mouse brain homogenate (0.5% Triton X-100), 37°C, two hours; C18 HPLC, UV 280 nm peak area vs sample in Tris buffer; Figure 5
# Procedure: Peptides were dissolved to give a 1 mM solution in […] (pH 7.6). 120 µl of the peptide solution was diluted into a 10% freshly-made homogenate of mouse brain excluding the cerebellum (in 1× Tris buffer and 0.5% Triton X-100). A mixture containing 20% peptide solution and 80% mouse brain homogenate was incubated at 37°C with delicate shaking for two hours. The enzyme reaction was stopped by adding 0.1 M HCl solution, followed by denaturation of the protein using methanol and incubation at 20°C for one hour. The precipitated proteins were centrifuged at 29,000×g for 20 minutes at 4°C and the supernatant containing the peptide was concentrated under vacuum and separated using a C18 HPLC column. The area of the peak (UV absorbance at 280 nm) corresponding to the intact peptide was compared with an equivalent sample incubated in […].
# Figure 5 Serum stability of β-syn 36 peptides. Brain extract of wild type ICR white mouse was incubated with the peptides β-syn 36 and retro-inverso β-syn 36 for two hours and loaded on a C18 column for serum stability analysis. (A) Spectra of the β-syn 36 peptide (blue) and β-syn 36 peptide with brain extract (red). […] (C) Quantification of the area under the peak. The area of the peptide in time ‘0’ was determined as 100%. […]
# α-syn monomers = molecular target: T1, α-syn monomers (Homo sapiens, UniProt P37840); assay: Fluorescence anisotropy titration with α-syn monomers; format: binding; conditions: fluorescent anisotropy, increasing amounts of α-syn monomers titrated into the peptide solution; Figure S1; read-out: affinity constant (Kd) towards α-syn monomers
# T1 construct: made in house; host or cells: E. coli BL21 (pT7-7)
# Procedure: To evaluate the binding of the peptides to α-syn, increasing amounts of α-syn monomers were titrated into a solution of the modified β-syn 36 peptide and anisotropy was determined (Figure S1). The affinity constant was determined to be ∼1 µM.
# Supplementary file pone.0013863.s001.tif: Figure S1 The affinity of the modified β-syn 36 containing tryptophan instead of tyrosine towardsα-syn monomers was examined using fluorescent anisotropy. Kd = 1 µM. (0.02 MB TIF) Click here for additional data file.
compound,measurement,setting,value
GVLYVGSKTR [β-syn 36],toxicity towards cultured cells (PC12),PC12 cells,no toxicity
CC(C)C[C@@H](NC(=O)[C@@H](Cc1ccc(O)cc1)NC(=O)[C@H](NC(=O)CNC(=O)[C@@H](CO)NC(=O)[C@@H](CCCCN)NC(=O)[C@H](NC(=O)[C@H](N)CCCNC(=N)N)[C@H](C)O)C(C)C)C(=O)N[C@@H](C(=O)NCC(=O)O)C(C)C [retro-inverso β-syn 36] (H-[dR][dT][dK][dS]G[dV][dY][dL][dV]G-OH),stability in mouse brain homogenate (called serum stability),[1],more stable than the unmodified β-syn 36
CC(C)C[C@@H](NC(=O)[C@H](NC(=O)CN)C(C)C)C(=O)N[C@H](Cc1c[nH]c2ccccc12)C(=O)N[C@@H](C(=O)NCC(=O)N[C@H](CO)C(=O)N[C@H](CCCCN)C(=O)N[C@@H](C(=O)N[C@H](CCCNC(=N)N)C(=O)O)[C@H](C)O)C(C)C [Y39W β-syn 36D] (H-G[dV][dL][dW][dV]G[dS][dK][dT][dR]-OH),Kd,α-syn monomers,1000 nM
